Results from patent US5585105A, “Utilization of derivatives of 2,5-dihydroxyphenylcarboxylic acids, their homologs, and their salts in preparation of a cosmetic or dermatological composition with a depigmenting action” (L'Oreal, priority 1991, dated 1996).

Test system: melanocyte
Test: not given
Details: background statement; cited from earlier work

| SMILES | irritation and cytotoxicity to the melanocyte |
| --- | --- |
| Oc1ccc(O)cc1 [hydroquinone, reference compound] | particularly irritating and cytotoxic to the melanocyte |

Test system: fungal tyrosinase
Test: in vitro tyrosinase activity inhibition test
Format: biochemical
Details: decrease in maximum dopachrome formed (OD 475 nm, plateau) vs without inhibitor; inhibitor 50 mol. % relative to tyrosine; pH 6.5, 25° C.
Source text: According to this test, the quantity of dopachrome formed during the chain of reactions by which tyrosine is converted into melanins is monitored by visible spectrometry at 475 nm. These reactions are catalyzed in vitro by fungal tyrosinase in the presence of a reducing cosubstrate (for example L-dopa in a small quantity) to initiate the hydroxylation reaction of L-tyrosine into L-dopa. The L-dopa is then oxidized catalytically into dopaquinone and then into dopachrome, an intermediate formed prior to the nonenzymatic oxidation reactions that lead to formation of melanins.
The inhibitor concentrations are established at 50 mol. % relative to the tyrosine concentration in the reaction medium.
The effect of inhibition is expressed by the decrease in the maximum quantity of dopachrome formed (optical density value at 475 nm read from the plateau of the curve) relative to the quantity obtained in the absence of inhibitor.
A--0.1 M phosphate buffer, pH=6.5 (Tween 20, 1%)
B--Stock solution of L-tyrosine, 2×10^-3 M in A
C--Stock solution of L-dopa, 10^-4 M in A
D--Stock solution of fungal tyrosinase, 2400 units/ml, in A
E--Stock solution of inhibitor, 10^-2 M in A (solutions C and D must be prepared on the day of the experiment).
reference cell: 3 ml of A
homogenize and equilibrate at 25° C.
mix rapidly and observe kinetics by measuring absorbance at 475 nm as a function of time.

| SMILES | % change in maximum dopachrome vs no inhibitor [%] |
| --- | --- |
| Oc1ccc(O)cc1 [hydroquinone, reference compound] | -33 |
| COC(=O)Cc1cc(O)c(C)cc1O | -87 |
| Cc1c(O)cc(CC(=O)O)c(O)c1C | -59 |
| O=C(O)CCc1cc(O)ccc1O | -42 |

Continued, values first:

| % change in maximum dopachrome vs no inhibitor [%] | SMILES |
| --- | --- |
| -64 | Cc1cc(O)c(CCC(=O)O)cc1O |
| -66 | Cc1cc(O)c(CC(=O)O)cc1O |
